US9394338B2, “Glutathione analogs and uses thereof” (REGENTS OF THE UNIVERSITY OF MINNESOTA, priority 2011, dated 2016)
Read-outs that look alike come from different tables or passages of the source.

Legend:
SH-SY-5Y cells = assay: cells; type: cell-based; conditions: for protection against Aβ toxicity: 10 μM, pretreatment 24 h; for protection against Aβ toxicity / length of cytoprotection against Aβ toxicity: 20 μM Aβ (1-42); for inhibition at 1000 µM: Homo sapiens, SH-SY5Y, SH-SY-5Y, compound 1 mM 24 h; for length of cytoprotection against Aβ toxicity: pretreatment of SH-SY-5Y cells
Method: (§1) Cytotoxicity Studies: Protection against β-amyloid 1-42 cytotoxicity in SH-SY-5Y cells was measured by standard MTT assays. SH-SY-5Y cells were seeded in 96-well plates at the density of 30,000 cells/well. After overnight incubation, the cells were exposed to GSH or Ψ-GSH at a concentration of 1 mM for 24 h at 37° C. After 24 h of incubation, the drug-containing medium was replaced with media containing 20 μM β-amyloid 1-42 peptide and the incubation was allowed to continue for additional 24 hours after the addition of the drugs. At the end of the incubation, 20 μL of MTT stock solution (5 mg/mL) was added to each well and incubated for 3 h at 37° C. The MTT reaction medium was discarded and the purple-blue MTT formazan crystals were dissolved by the addition of 100 μL of 0.1 N HCl in isopropanol. The optical density (OD), a reflection mitochondrial function of the viable cells, was read directly with a microplate reader (BioTek SynergyHT, VT, USA) at 580 nm and a reference wavelength of 680 nm. Concentration response graphs were generated for each drug using GraphPad Prism software (GraphPad Software, Inc., San Diego, Calif., USA). Results are expressed as mean percent inhibition of β-amyloid toxicity with the standard error of the mean. In another set of experiments, cells were preincubated with a glyoxalase I inhibitor, S-(p-bromobenzylglutathione) (1 mM) for 24 hours before addition of βamyloid1-42 peptide (20 μM).
as §1, with “Protection” for “Cytotoxicity Studies: Protection”, “against β-amyloid^1-42” for “against β-amyloid 1-42”, “cells/well. […]” for “cells/well. After overnight incubation, the cells were exposed to GSH or Ψ-GSH at a concentration of 1 mM for 24 h at 37° C.”, “μM β-amyloid^1-42” for “μM β-amyloid 1-42”, “20 μl,” for “20 μL”, “mean.” for “mean. In another set of experiments, cells were preincubated with a glyoxalase I inhibitor, S-(p-bromobenzylglutathione) (1 mM) for 24 hours before addition of βamyloid1-42 peptide (20 μM).”

[1] = Pharmacokinetic evaluation in plasma; type: in vivo, C57BL/6 mice; conditions: single i.p. dose 500 mg/kg; for CL_F Clearance / absorption half-life / half-life / AUC / Cmax / Tmax: C57BL/6 mice, plasma; for absorption half-life / half-life / AUC / Cmax / Tmax: female, ip; for absorption half-life / half-life: C57BL/6, mouse, 500 mg/kg; for absorption half-life: read-out: K01 absorption half life (converted); for half-life: read-out: K10 elimination half life (converted); for AUC / Cmax / Tmax: mouse
Method: Pharmacokinetic Evaluation of Ψ-GSH. Eight weeks old C57BL/6 female mice (n=4 animals/time point) were given 500 mg/kg of GSH or Ψ-GSH in saline intraperitoneally. Blood samples were collected at […], 1, 2, 4, 8, 24 hr after the drug administration through retro-orbital bleeding into heparin-coated tubes. Blood was immediately centrifuged at 5000×g for 10 min at 4° C. The top plasma layer was transferred into a new tube and mixed with an equal volume of 5% sulfosalicylic acid in […] potassium phosphate buffer containing 1 mM EDTA disodium salt (pH 7.2). This was followed by centrifugation of samples at 8000×g for 10 min at 4° C. and analysis of thiol concentration. The derivatization reaction was realized utilizing 130 μL of the supernatant, 500 μL of Tris-HCl buffer 0.5 M, pH 8.9 and 350 μL of DTNB 10 mM in of K2HPO4 (0.5 M, pH 8.0). After 5 min in an ice bath, the reaction mixture was acidified by addition of 100 μL H3PO4 7 M and centrifuged at 3000×g for 10 min. Then, derivatized GSH or Ψ-GSH was filtered through a 0.22 μm membrane and 20 μL was injected in HPLC at 330 nm. HPLC analysis was carried out on a Beckman Coulter Gold HPLC system, controlled by a system controller (32 Karat workstation with PC). The HPLC conditions employed a Varian Microsorb column (C18, 5 μm, 4.6×250 mm) using solvent A [water containing 0.9% v/v formic acid] and solvent B [acetonitrile] with 1 mL/min flow rate and detected at 330 nm. Solvent B was increased from 0 to 30% in 9 min, then to 80% in 7 min, and held at 80% for an additional 4 min. The retention time for derivatized Ψ-GSH was 11.8 minutes.

[2] = test system: equine kidney γ-glutamyltranspeptidase; assay: γ-Glutamyltranspeptidase assay (stability to γ-GT mediated degradation); type: in vitro ADME
Method: γ-Glutamyltranspeptidase Assay. […] The plates were developed alongside authentic predicted degradation products with the solvent system: 4:1.5:2; Butanol/Acetic acid/Water. Visual detection of TLC spots was performed under UV and also by iodine and fluorescamine staining solution.

APP/PS1 mice = assay: Brain ROS assay (DCFH-DA); type: in vivo
Method: Efficacy Study Design. To determine the effect of intraperitoneal and oral Ψ-GSH treatment, the study was divided in four groups (10 mice/group). 1. APP/PS1 mice-vehicle control, 2. APP/PS1 mice-Ψ-GSH i.p. 500 mg/kg, 3. APP/PS1 mice-Ψ-GSH oral 500 mg/kg, 4. Non-transgenic wild type mice-vehicle control. All the animals in the above-said groups were treated with saline or Ψ-GSH three times a week for 12 weeks, starting at the age of three to four months. Eleven weeks after the start of the treatment, the animals were tested in the Morris water maze, and twelve weeks after the start of the treatment, the animals were sacrificed for histopathological analysis.
ROS Assay. ROS levels were quantified via the 2′-7′-dichlorofluorescein-diacetate (DCFH-DA) assay. […] The reaction was then stopped by placing it on ice and the formation of oxidized fluorescent 2′-7′-dichlorofluorescein (DCF) was measured with a fluorescence plate reader (BioTek SynergyHT, VT, USA) using excitation and emission wavelengths at 488 and 525 nm, respectively. The final results were corrected for protein concentration and then expressed as percentage of the corresponding values in saline treated wild-type mice. All steps were performed in the dark and DCF formation was also monitored immediately after DCFH-DA was added to the homogenate (t=0 min) in order to subtract background autofluorescence.

[3] = then 20 μM Aβ1-42 24 h, read-out: % Inhibition of Cell Growth with Aβ1-42
[4] = without Aβ1-42, read-out: % Inhibition of Cell Growth without Aβ1-42

| Compound | protection against Aβ toxicity (SH-SY-5Y cells) | inhibition at 1000 µM (SH-SY-5Y cells; [3]) [%] | inhibition at 1000 µM (SH-SY-5Y cells; [4]) [%] | length of cytoprotection against Aβ toxicity (SH-SY-5Y cells) | CL_F Clearance [1] [mL/min/kg] | absorption half-life [1] [min] | half-life [1] [min] | AUC [1] [µg·h/mL] | Cmax [1] [µg/mL] | Tmax [1] [min] | time to complete degradation by γ-GT ([2]; incubation with γ-GT) [min] | total brain ROS levels, increase over WT mice (APP/PS1 mice; i.p.) [%] | levels of ROS (APP/PS1 mice; oral) | AUC relative to GSH [1] [fold] | Cmax relative to GSH [1] [fold] | Tmax relative to GSH [1] [fold] | degradation during incubation with γ-GT ([2]; incubation with γ-GT for up to 24 h) |
| --- | --- | --- | --- | --- | --- | --- | --- | --- | --- | --- | --- | --- | --- | --- | --- | --- | --- |
| N[C@@H](CCC(=O)N[C@@H](CS)C(=O)NCC(=O)O)C(=O)O [GSH, Glutathione] | fully protected the cells | 12 | 0 | significant only until day 3 | 165.9 | 7.62 | 29.7 | 50.2 | 43.9 | 20.2 | ≤ 30 |  |  |  |  |  |  |
| N[C@@H](CNC(=O)N[C@@H](CS)C(=O)NCC(=O)O)C(=O)O [Ψ-GSH, γ-Gla-Cys-Gly-OH] | fully protected the cells | 4 | 0 | five days | 31.15 | 10.3 | 73.6 | 267 | 110 | 34 |  | 6 | unaffected | 5.3 | 2.5 | 3 | No appreciable degradation |
